Here are results for 5 compounds from patent US20120178769A1, “NOVEL COMPOUNDS FOR INHIBITING EEF-2 KINASE ACTIVITY” (The University of Medicine and Dentistry, priority 2009, published 2012).

For one test, the system named is glioma cell lines. The note with it: by inhibiting eEF2-K; Parmer et al, 1997; cited from earlier work.
For the next test, the target named is eEF2K (Homo sapiens, UniProt O00418). The note with it: known selenazine inhibitors; cited from earlier work.
In the next test the target is eEF2 kinase (Homo sapiens, UniProt O00418). Briefly: eEF2 kinase activity assay with purified eEF2 (33P-ATP, SDS-PAGE, autoradiography). The format is biochemical. The note with it: purified eEF2, FIG. 1.

Chain of eEF2K (O00418 whole entry): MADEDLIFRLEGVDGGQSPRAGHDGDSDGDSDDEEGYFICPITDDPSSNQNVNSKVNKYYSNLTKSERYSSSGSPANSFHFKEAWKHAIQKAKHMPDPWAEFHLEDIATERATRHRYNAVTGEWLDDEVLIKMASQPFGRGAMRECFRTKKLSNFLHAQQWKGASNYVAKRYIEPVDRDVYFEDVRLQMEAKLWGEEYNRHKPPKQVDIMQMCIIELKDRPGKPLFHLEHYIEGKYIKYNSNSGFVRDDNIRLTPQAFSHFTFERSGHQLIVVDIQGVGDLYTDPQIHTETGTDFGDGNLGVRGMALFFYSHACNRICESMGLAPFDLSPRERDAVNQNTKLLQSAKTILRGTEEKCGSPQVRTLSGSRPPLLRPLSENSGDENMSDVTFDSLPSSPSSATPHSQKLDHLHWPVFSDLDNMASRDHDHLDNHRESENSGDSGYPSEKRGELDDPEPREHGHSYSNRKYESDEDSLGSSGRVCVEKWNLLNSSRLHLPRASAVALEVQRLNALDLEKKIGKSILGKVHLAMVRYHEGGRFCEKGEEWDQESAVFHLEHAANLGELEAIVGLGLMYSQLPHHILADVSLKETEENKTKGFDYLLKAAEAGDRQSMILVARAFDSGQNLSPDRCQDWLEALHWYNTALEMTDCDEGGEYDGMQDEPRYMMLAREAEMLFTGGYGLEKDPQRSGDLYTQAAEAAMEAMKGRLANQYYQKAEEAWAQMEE
Method for eEF2 kinase: Recombinant eEF2 kinase (0.5 μg) was incubated with purified rabbit reticulocyte eEF2 (0.5 μg) in a reaction mixture consisting of 50 mM Hepes-KOH pH 6.6, 10 mM magnesium acetate, 5 mM DTT, 100 μM CaCl2, 0.5 μg calmodulin, 50 μM ATP, and 0.2 μCi [γ-^33P]-ATP (3000 Ci/mmol). The reactions were run at 30° C. for 15 minutes, and were terminated by incubation in an ice/water bath and addition of Laemmli sample buffer. Samples were analyzed by SDS-PAGE and autoradiography.

On to `CC(=O)c1c(O)c(C)c(O)c(Cc2c(O)c3c(c(C(=O)/C=C/c4ccccc4)c2O)OC(C)(C)C=C3)c1O` [Rottlerin], for which the “inhibition of growth of glioma cell lines” value with glioma cell lines was “inhibit growth of glioma cell lines”.

For the compound `CCC1(O)CC[Se]C(c2ccc(C)cc2)=N1` (centres unmarked) [TS2], the “inhibition of eEF2K phosphorylative activity” value at eEF2K is “known to inhibit eEF2K phosphorylative activity”. On to `CCCCCCCCCCCCC/C=C/[C@@H](O)[C@@H](N)COP(=O)(O)O` [sphingosine-1-phosphate], for which, on eEF2 kinase, the “inhibition of eEF2 kinase in vitro” value is reported as “inhibit eEF2 kinase in vitro”. For the compound `Cc1ccc(C2=NC(C)(O)CC(C(C)C)[Se]2)cc1` (centres unmarked) [TS4], the “inhibition of eEF2K phosphorylative activity” value on eEF2K was “known to inhibit eEF2K phosphorylative activity”. Turning to `CCCCCC1=NC(O)(CC)CC[Se]1` (centres unmarked) [PS2], the “inhibition of eEF2K phosphorylative activity” value on eEF2K is reported as “known to inhibit eEF2K phosphorylative activity”.
